Columns and labels:
HuT-78 cells = test: cell-based cytotoxicity assay (Cell Titer 96 Aqueous One), HuT-78; conditions: 72-h exposure, absorbance at 490 nm
Experimental: (§1) All cell lines were purchased from ATCC (Manassas, Va.). Jurkat cells were cultured in RPMI 1640 (ATCC) supplemented with 10% fetal bovine serum (FBS; Atlanta Biologicals, Lawrenceville, Ga.). HuT-78 cells were cultured in IMDM (ATCC) supplemented with 20% FBS (Atlanta Biologicals). HT-29 and HCT116 were cultured in McCoy's media (Life Technologies, Carlsbad Calif.) supplemented with 10% FBS (Atlanta Biologicals), 1% non-essential amino acids (Mediatech Inc., Manassas, Va.) and 1% penicillin/streptomycin (Mediatech Inc).
(§2) Confluent Jurkat and HuT-78 cells were seeded in triplicate at a density of 5×10^4 cells/well whereas HT-29 and HCT116 cells were seeded in triplicate at a density of 5×10^3 cells/well in 96-well plates. Cells were treated at varying concentrations (1 μM-100 μM) of either a tropolone analog or SAHA. DMSO served as a vehicle control. After a 72-h exposure, cytotoxicity was evaluated using the Cell Titer 96 Aqueous One kit (Promega, Madison, Wis.) according to the instructions of the manufacturer. Formazan content was determined by measuring the absorbance at 490 nm on an Infinite M200 microplate reader (Tecan Group Ltd., Switzerland) and analyzed via non-linear regression analysis (GraphPad Software, Inc.).

Jurkat cells = test: cell-based cytotoxicity assay (Cell Titer 96 Aqueous One), Jurkat; conditions: 72-h exposure, absorbance at 490 nm
Experimental: as §1, §2

human recombinant HDAC4 = human recombinant HDAC4 (Homo sapiens, UniProt P56524); test: fluorogenic HDAC inhibition assay, HDAC4; format: biochemical; conditions: IC50 converted to Ki with KM (Cheng and Prusoff); read-out: Ki HDAC-4
human recombinant HDAC8 = human recombinant HDAC8 (Homo sapiens (Human), UniProt Q9BY41); test: fluorogenic HDAC inhibition assay, HDAC8; format: biochemical; conditions: IC50 converted to Ki with KM (Cheng and Prusoff); read-out: Ki HDAC-8
Experimental: Key enzyme kinetic parameters for one class I HDAC (HDAC8) and one class Ha HDAC (HDAC4) were determined using commercially available human recombinant HDAC enzymes (BPS Bioscience, San Diego, Calif.) and fluorogenic HDAC assay kits (BPS Bioscience). Kinetic parameters were determined by performing HDAC activity assays at varied concentrations of the HDAC substrate according to the manufacturer's protocol. Assay data were analyzed via non-linear regression (GraphPad Software, Inc., CA). Inhibition assays were used to determine the half maximal inhibitory concentration, IC50, for tropolone analogs in HDAC8 and […]. The potent hydroxamic acid HDAC inhibitor, Trichostatin A (TSA), provided in the assay kit, served as a control for the assays. IC50 values for the tropolone analogs were converted to inhibition constants, Ki, for each of the inhibitors using the KM value in accordance with the techniques previously described by Cheng and Prusoff.

Chain of human recombinant HDAC8 (Q9BY41 whole entry): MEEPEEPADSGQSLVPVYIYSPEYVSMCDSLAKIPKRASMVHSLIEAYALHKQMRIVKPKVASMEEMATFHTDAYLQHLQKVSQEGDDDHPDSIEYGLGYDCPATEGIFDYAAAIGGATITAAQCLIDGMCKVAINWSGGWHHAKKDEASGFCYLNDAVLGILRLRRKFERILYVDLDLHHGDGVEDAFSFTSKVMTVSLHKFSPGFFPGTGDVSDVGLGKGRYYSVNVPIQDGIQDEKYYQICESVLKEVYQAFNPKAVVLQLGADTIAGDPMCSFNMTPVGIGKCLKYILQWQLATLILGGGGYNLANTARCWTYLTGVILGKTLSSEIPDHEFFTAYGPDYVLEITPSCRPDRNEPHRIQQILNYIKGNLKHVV
Chain of human recombinant HDAC4 (P56524 whole entry, looked up): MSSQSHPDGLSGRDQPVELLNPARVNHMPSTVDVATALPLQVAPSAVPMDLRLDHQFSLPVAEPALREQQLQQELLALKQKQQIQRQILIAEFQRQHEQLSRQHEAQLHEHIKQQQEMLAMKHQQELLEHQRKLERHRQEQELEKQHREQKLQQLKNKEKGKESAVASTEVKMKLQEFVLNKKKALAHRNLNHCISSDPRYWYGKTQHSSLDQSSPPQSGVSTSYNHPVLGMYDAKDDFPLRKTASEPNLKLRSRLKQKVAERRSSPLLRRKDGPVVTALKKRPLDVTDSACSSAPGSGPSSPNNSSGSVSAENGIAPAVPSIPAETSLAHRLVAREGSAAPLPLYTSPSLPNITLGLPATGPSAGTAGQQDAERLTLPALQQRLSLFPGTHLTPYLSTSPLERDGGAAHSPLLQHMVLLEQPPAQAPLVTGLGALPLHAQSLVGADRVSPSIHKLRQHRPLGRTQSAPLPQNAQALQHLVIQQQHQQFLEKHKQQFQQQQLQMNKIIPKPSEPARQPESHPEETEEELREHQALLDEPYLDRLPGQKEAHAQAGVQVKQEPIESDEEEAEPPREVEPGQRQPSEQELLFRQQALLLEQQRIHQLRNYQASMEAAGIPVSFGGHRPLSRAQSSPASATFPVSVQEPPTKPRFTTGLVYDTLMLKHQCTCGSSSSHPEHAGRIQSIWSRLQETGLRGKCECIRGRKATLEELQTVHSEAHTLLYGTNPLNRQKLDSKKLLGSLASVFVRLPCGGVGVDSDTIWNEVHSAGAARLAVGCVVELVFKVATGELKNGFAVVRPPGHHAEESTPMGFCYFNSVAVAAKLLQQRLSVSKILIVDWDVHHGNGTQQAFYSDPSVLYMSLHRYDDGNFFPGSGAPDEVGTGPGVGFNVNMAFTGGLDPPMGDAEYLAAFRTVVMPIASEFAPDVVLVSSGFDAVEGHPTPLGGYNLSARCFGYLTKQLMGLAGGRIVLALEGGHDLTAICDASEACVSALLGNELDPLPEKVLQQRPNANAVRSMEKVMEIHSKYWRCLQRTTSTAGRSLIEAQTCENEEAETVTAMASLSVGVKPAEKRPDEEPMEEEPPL

Structure (SMILES) | IC50 (HuT-78 cells; Homo sapiens, HuT78) [nM] | IC50 (Jurkat cells; Homo sapiens, Jurkat) [nM] | Ki (human recombinant HDAC4) [nM] | Ki (human recombinant HDAC8) [nM] | IC50 (HuT-78 cells) [nM] | IC50 (Jurkat cells) [nM]
O=c1c(O)ccccc1-c1ccccc1 [Example 1] | 7830 | 3330 | 0.08 | 0.17 | – | –
O=c1c(O)ccccc1-c1ccc2ccccc2c1 [Example 2] | – | – | 0.54 | 7.63 | – | –
COc1ccc(-c2ccccc(O)c2=O)cc1 [Example 3] | 2870 | 620 | 2.74 | 0.14 | – | –
COc1ccc(OC)c(-c2ccccc(O)c2=O)c1 [Example 4] | 3050 | 750 | 184 | 0.44 | – | –
COc1ccc(-c2ccccc(O)c2=O)c(OC)c1OC [Example 5] | 4740 | 1860 | 59 | 0.04 | – | –
O=c1cccc(-c2ccccc2)cc1O [Example 6] | – | – | 72.8 | 19.4 | 4140 | 670
COc1cccc(-c2cccc(O)c(=O)c2)c1 [Example 7] | – | – | 1.7 | 1.36 | 8950 | 4620
COc1ccc(OC)c(-c2cccc(O)c(=O)c2)c1 [Example 8] | – | – | 541 | 1.42 | 17100 | 5880
CC(C)c1cccc(O)c(=O)c1 [Example 9] | – | – | 3.32 | 105 | 4990 | 1100
CC(C)(C)c1cccc(O)c(=O)c1 [Example 10] | – | – | 489 | 2.69 | 13100 | 4450
CCC(C)c1cccc(O)c(=O)c1 (stereo not shown) [Example 11] | – | – | 94.5 | 10.1 | 3250 | 590
O=c1cc(C2CCCC2)cccc1O [Example 12] | – | – | 6.64 | 23.3 | 11400 | 6300

Reference: patent US9790158B2, “Substituted tropolone derivatives and methods of use” (University of Connecticut, priority 2012, dated 2017)
